Data taken from PubChem BioAssay (NCI).
Values joined by “and” are separate entries in the source; they are usually repeats but may differ in a detail not shown here. Equal values may be shown once.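 Briefly, cells in 96-well plates were exposed to five compound concentrations for 48 h, and endpoints were estimated by linear interpolation. GI50 is the concentration that inhibits growth by half. TGI: concentration producing complete growth inhibition.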

Key:
Assay in all cases: NCI tumour cell line growth inhibition, 48 h
[1] = system: K-562 leukemia
[2] = system: PC-3 prostate
[3] = system: HCT-15 colon
[4] = system: MALME-3M melanoma
[5] = system: HT29 colon
[6] = system: NCI/ADR-RES ovarian
[7] = system: HCT-116 colon
[8] = system: M14 melanoma
[9] = system: SNB-19 CNS
[10] = system: OVCAR-8 ovarian
[11] = system: U251 CNS
[12] = system: SK-MEL-2 melanoma
[13] = system: HL-60(TB) leukemia
[14] = system: ACHN renal
[15] = system: EKVX NSCLC
[16] = system: SK-MEL-5 melanoma
[17] = system: A549 NSCLC
[18] = system: MCF7 breast
[19] = system: OVCAR-3 ovarian
[20] = system: DU-145 prostate
[21] = system: A498 renal
[22] = system: SF-268 CNS
[23] = system: SF-539 CNS
[24] = system: OVCAR-4 ovarian
[25] = system: IGROV1 ovarian
[26] = system: SN12C renal
[27] = system: OVCAR-5 ovarian
[28] = system: COLO 205 colon
[29] = system: TK-10 renal
[30] = system: UO-31 renal
[31] = system: SW-620 colon
[32] = system: RXF 393 renal
[33] = system: UACC-62 melanoma
[34] = system: SK-OV-3 ovarian
[35] = system: LOX IMVI melanoma
[36] = system: NCI-H522 lung
[37] = system: MOLT-4 leukemia
[38] = system: HS 578T breast
[39] = system: UACC-257 melanoma
[40] = system: SF-295 CNS
[41] = system: SNB-75 CNS
[42] = system: NCI-H460 lung
[43] = system: SR leukemia
[44] = system: CAKI-1 renal
[45] = system: BT-549 breast
[46] = system: T-47D breast
[47] = system: MDA-MB-231 breast
[48] = system: HOP-92 NSCLC
[49] = system: NCI-H226 lung
[50] = system: HOP-62 NSCLC
[51] = system: NCI-H23 lung
[52] = system: HCC-2998 colon
[53] = system: RPMI-8226 leukemia
[54] = system: KM12 colon
[55] = system: SK-MEL-28 melanoma
[56] = system: 786-0 renal
[57] = system: CCRF-CEM leukemia
[58] = system: MDA-MB-435

O=C(O)c1ccc2c(c1)nc(Nc1cccc(Cl)c1)c1ccncc12
GI50 [1]: 3.06 µM and 4.09 µM | TGI [1]: 15.7 µM and > 10 µM | GI50 [2]: 2.88 µM and 3.57 µM | TGI [2]: 22 µM and > 10 µM | GI50 [3]: 3.12 µM and 2.92 µM | TGI [3]: 21.7 µM and > 10 µM | GI50 [4]: 1.91 µM and 2.68 µM | TGI [4]: 7.71 µM and > 10 µM | GI50 [5]: 5.48 µM and 6.26 µM | TGI [5]: 33.3 µM and > 10 µM | GI50 [6]: 3.17 µM and 3.73 µM | TGI [6]: > 80.1 µM | GI50 [7]: 2.39 µM and 2.82 µM | TGI [7]: 8.69 µM and > 10 µM | GI50 [8]: 1.52 µM and 2.2 µM | TGI [8]: 5.39 µM and 9.68 µM | GI50 [9]: 3.04 µM and 3.46 µM | TGI [9]: > 100 µM | GI50 [10]: 4.1 µM and 3.3 µM | TGI [10]: > 75.4 µM | GI50 [11]: 1.82 µM and 1.38 µM | GI50 [12]: 2.4 µM and 1.86 µM | TGI [12]: 7.11 µM and 5.59 µM | GI50 [13]: 2.88 µM and 4.98 µM | TGI [13]: 7.67 µM and > 10 µM | GI50 [14]: 3.04 µM and 3.51 µM | TGI [14]: > 100 µM | GI50 [15]: 3.46 µM and 4.04 µM | TGI [15]: 23.9 µM and > 10 µM | GI50 [16]: 1.86 µM and 2.08 µM | TGI [16]: 4.76 µM and 5.38 µM | GI50 [17]: 7.23 µM and 6.64 µM | TGI [17]: 27.4 µM and > 10 µM | GI50 [18]: 2.22 µM and 2.57 µM | TGI [18]: > 100 µM | GI50 [19]: 1.2 µM and 1.68 µM | TGI [19]: 4.15 µM and > 10 µM | GI50 [20]: 4.92 µM and 6.02 µM | TGI [20]: 47.3 µM and > 10 µM | GI50 [21]: 0.231 µM and 1.99 µM | TGI [21]: 2.46 µM and 6.66 µM | GI50 [22]: 3.52 µM and 3.85 µM | TGI [22]: > 77.4 µM | GI50 [23]: 2.05 µM and 1.58 µM | TGI [23]: 8.45 µM and 6.12 µM | GI50 [24]: 2.09 µM and 4.08 µM | TGI [24]: 21.6 µM and > 10 µM | GI50 [25]: 3.56 µM and 2.68 µM | GI50 [26]: 3.88 µM and 3.71 µM | TGI [26]: > 100 µM | GI50 [27]: 3.2 µM and 4.53 µM | TGI [27]: 38.7 µM and > 10 µM | GI50 [28]: 4.21 µM and 3.67 µM | TGI [28]: 15.1 µM and > 10 µM | GI50 [29]: 3.67 µM and 2.13 µM | TGI [29]: 25.2 µM and > 10 µM | GI50 [30]: 3.79 µM and 2.86 µM | TGI [30]: 14 µM and > 10 µM | GI50 [31]: 3.1 µM and 3.97 µM | TGI [31]: 26.5 µM and > 10 µM | GI50 [32]: 3.23 µM and 4.17 µM | TGI [32]: 13 µM and > 10 µM | GI50 [33]: 1.82 µM | TGI [33]: 6.16 µM | GI50 [34]: 2.98 µM and 2.42 µM | TGI [34]: 11.6 µM and 7.52 µM | GI50 [35]: 2.04 µM and 2.7 µM | TGI [35]: 10.7 µM and > 10 µM | GI50 [36]: 1.98 µM and 1.39 µM | TGI [36]: 6.42 µM and 4.51 µM | GI50 [37]: 3.07 µM and 4.6 µM | TGI [37]: 7.4 µM and > 10 µM | GI50 [38]: 0.435 µM and 1.17 µM | TGI [38]: 3.88 µM and 6.21 µM | GI50 [39]: 3.88 µM and 2.68 µM | TGI [39]: 20.3 µM and > 10 µM | GI50 [40]: 2.74 µM and 3.17 µM | TGI [40]: > 42.9 µM | GI50 [41]: 1.44 µM and 1.67 µM | TGI [41]: 6.33 µM and 7.53 µM | GI50 [42]: 3.48 µM and 4.32 µM | TGI [42]: 25.1 µM and > 10 µM | GI50 [43]: 2.04 µM and 2.63 µM | TGI [43]: 6.3 µM and 9.2 µM | GI50 [44]: 1.31 µM and 1.96 µM | TGI [44]: 5.73 µM and 7.22 µM | GI50 [45]: 2.48 µM and 2.29 µM | TGI [45]: 10.9 µM and 8.33 µM | GI50 [46]: 2.83 µM and 1.33 µM | TGI [46]: > 39.1 µM and 5.71 µM | GI50 [47]: 4.18 µM and 3.57 µM | TGI [47]: 34.2 µM and > 10 µM | GI50 [48]: 0.325 µM and 0.445 µM | TGI [48]: 3.77 µM and 4.06 µM | GI50 [49]: 1.77 µM and 2.77 µM | TGI [49]: > 20.3 µM | GI50 [50]: 3.3 µM and 3.38 µM | TGI [50]: 25.5 µM and > 10 µM | GI50 [51]: 2.37 µM and 2.98 µM | TGI [51]: 8.29 µM and > 10 µM | GI50 [52]: 2.53 µM and 4.02 µM | TGI [52]: 15.1 µM and > 10 µM | GI50 [53]: 2.68 µM and 2.5 µM | TGI [53]: 8.86 µM and 9.44 µM | GI50 [54]: 3.43 µM and 4.43 µM | TGI [54]: 18.1 µM and > 10 µM | GI50 [55]: 3.12 µM and 3.2 µM | TGI [55]: 21.9 µM and > 10 µM | GI50 [56]: 3.7 µM and 4.2 µM | TGI [56]: 18.6 µM and > 10 µM | GI50 [57]: 2.25 µM and 1.85 µM | TGI [57]: 8.55 µM and 7.01 µM | GI50 [58]: 2.67 µM and 3.01 µM | TGI [58]: > 31.6 µM
